{"source": "patent US20240261274A1", "about": "“TREATMENT OF MYC-DRIVEN CANCERS WITH GSPT1 DEGRADERS” (MONTE ROSA THERAPEUTICS, INC., priority 2021, published 2024)", "key": {"[1]": {"molecular_target": "T1, GSPT1 (Homo sapiens, UniProt P15170+Q96SW2)", "T1 sequence (P15170 whole entry)": "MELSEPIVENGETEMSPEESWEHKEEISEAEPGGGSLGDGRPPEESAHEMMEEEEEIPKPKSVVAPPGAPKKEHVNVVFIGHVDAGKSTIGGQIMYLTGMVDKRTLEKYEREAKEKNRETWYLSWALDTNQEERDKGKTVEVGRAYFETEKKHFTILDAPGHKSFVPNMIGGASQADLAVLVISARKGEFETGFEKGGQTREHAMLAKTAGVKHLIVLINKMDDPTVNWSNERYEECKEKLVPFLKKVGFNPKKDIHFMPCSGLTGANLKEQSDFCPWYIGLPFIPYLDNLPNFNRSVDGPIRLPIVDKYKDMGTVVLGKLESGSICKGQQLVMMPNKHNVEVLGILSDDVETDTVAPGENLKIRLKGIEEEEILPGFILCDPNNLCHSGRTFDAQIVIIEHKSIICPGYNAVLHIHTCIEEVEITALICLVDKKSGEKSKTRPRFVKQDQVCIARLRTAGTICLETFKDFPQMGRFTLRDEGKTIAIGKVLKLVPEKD", "T1 sequence (Q96SW2 whole entry)": "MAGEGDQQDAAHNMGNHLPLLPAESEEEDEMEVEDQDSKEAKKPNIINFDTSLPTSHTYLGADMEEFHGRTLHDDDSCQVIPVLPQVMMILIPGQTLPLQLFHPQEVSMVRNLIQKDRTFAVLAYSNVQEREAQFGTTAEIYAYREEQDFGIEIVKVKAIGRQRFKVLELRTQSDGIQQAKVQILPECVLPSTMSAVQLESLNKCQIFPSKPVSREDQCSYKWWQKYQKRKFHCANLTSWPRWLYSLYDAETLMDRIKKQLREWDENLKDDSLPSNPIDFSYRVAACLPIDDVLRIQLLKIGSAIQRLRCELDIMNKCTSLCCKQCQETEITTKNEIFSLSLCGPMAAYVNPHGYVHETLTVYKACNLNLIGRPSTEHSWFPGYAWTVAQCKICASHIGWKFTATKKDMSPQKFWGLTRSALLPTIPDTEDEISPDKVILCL", "T1 sequence (Q16531 whole entry partner)": "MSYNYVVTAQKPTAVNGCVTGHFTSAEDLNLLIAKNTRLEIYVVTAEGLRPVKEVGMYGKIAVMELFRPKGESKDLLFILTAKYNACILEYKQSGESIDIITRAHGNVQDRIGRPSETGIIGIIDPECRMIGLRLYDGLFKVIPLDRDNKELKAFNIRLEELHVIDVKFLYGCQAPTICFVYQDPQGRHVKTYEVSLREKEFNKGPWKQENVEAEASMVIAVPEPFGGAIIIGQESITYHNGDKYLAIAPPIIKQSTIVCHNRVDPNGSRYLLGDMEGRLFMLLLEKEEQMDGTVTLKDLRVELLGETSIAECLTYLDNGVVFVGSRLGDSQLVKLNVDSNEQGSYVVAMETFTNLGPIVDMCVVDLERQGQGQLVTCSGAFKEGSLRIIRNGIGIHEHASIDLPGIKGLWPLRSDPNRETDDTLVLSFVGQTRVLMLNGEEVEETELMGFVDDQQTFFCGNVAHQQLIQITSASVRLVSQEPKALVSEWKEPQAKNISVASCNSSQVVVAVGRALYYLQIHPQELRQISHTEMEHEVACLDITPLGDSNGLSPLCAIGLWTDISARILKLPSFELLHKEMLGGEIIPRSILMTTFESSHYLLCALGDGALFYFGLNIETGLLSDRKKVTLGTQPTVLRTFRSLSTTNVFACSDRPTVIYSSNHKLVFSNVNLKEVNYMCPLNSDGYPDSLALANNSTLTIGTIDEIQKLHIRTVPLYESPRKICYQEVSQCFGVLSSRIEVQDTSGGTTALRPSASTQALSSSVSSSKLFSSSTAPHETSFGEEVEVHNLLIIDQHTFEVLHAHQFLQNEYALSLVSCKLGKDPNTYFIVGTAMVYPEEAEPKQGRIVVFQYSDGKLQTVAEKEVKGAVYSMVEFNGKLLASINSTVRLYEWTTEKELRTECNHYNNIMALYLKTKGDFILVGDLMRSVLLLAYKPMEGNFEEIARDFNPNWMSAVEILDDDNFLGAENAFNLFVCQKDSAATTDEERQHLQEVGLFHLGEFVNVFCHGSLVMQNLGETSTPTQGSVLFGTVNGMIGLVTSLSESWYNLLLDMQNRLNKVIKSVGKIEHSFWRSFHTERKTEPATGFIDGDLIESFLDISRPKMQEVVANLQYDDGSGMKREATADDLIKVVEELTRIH", "test": "GSPT1 degradation by compound 210 in NSCLC cells", "format": "cell-based", "set-up": "endogenous in cells", "procedure": "GSPT1 was degraded by compound 210 after six hours of treatment in high N-Myc NCI-H1155 and ABC-1 cells with a DC50 of 3 nM and 22 nM, respectively (x-axis represents M concentration of compound 210; y-axis represents the viability in %)."}, "[2]": {"molecular_target": "T1, GSPT1", "test": "GSPT1 degradation by western blotting in NSCLC cell lines (compound 210)", "format": "cell-based", "set-up": "endogenous in cells", "conditions": "NCI-H1155 and ABC-1 cells, six hours", "procedure": "The anti-proliferative activity of compound 210 was tested on representative N-Myc high and N-Myc low cell lines (NCI-H1155, ABC-1 and EBC-1, NCI-H2023, respectively) following treatment with compound for 72 hours. Cells were sub-cultures as recommended by the providers (ATCC, DSMZ) and incubated at 37° C., 5% CO2. All cells were authenticated and confirmed by Short Tandem Repeat (STR) profiling. Briefly, cells were seeded to the appropriate density to allow logarithmic growth over the assay period in 96-well opaque-walled clear bottom plates (from Corning, Cat. No. 3903, Lot. No. 16419061; 100 μL total volume) and incubated overnight. […] Cell viability was assessed using the CellTiter-Glo assay kit as recommended by the Manufacturer (Promega, Cat. No. G7558, Lot. No. 0000385738) and measurements performed on the EnSpire multimode plate reader (Perkin Elmer). EC50 values were determined using Prism8 (GraphPad) and the asymmetric (five-parameter) equation and least squares fit. GSPT1 levels were assessed in the NCI-H1155 and ABC-1 cell lines by densitometry analysis following treatment with compound 210 for 6 hours and western blotting analysis. […] For chemiluminescence and colorimetric signals “optimal automatic exposure” settings (3×3 binning) were employed while fluorescence was detected using 1-4 seconds exposure time to achieve best GAPDH signals and avoid overexposure. […]"}, "[3]": {"tested_on": "human cell line NCI-H526 xenograft", "test": "N-Myc-driven mouse xenograft model, NCI-H526, compound 210 oral", "format": "in vivo"}, "[4]": {"tested_on": "MM1S cell line", "test": "Caspase 3/7 apoptosis Glo assay in MM1S", "format": "cell-based", "conditions": "48 hr treatment"}, "[5]": {"molecular_target": "T1, GSPT1", "test": "GSPT1 levels in breast cancer tumors after compound 8 (western blotting)", "format": "in vivo", "set-up": "endogenous in cells", "conditions": "three consecutive doses at 37 and 75 mpk; tumors harvested 24 hr post third dose; MDA-MB-468, MDA-MB-231, MDA-MB-436, CAL51", "procedure": "Representative examples below show the levels of GSPT1 in MDA-MB-468 (ATCC HTB-132), MDA-MB-231 (ATCC HTB-26), MDA-MB-436 (ATCC HTB-130) and CAL51 (DSMZ-ACC-302) tumors (in lanes from top down as indicated) following three consecutive doses of compound 8 at 37 (right panel) and 75 mpk (middle panel) or administration of vehicle only (left panel). GADPH levels as control is shown in the lowest lane. Tumors were harvested 24 hr post third dose and levels of GSPT1 were determined by western blotting as indicated. Tumors were collected from the in vivo efficacy studies described in the previous FIG. 7A."}, "[6]": {"molecular_target": "T1, GSPT1", "test": "GSPT1 levels in tumors, PD analysis by western blotting (compound 8)", "format": "in vivo, mice", "set-up": "from tissue; host or cells: NCI-H1155 subcutaneous xenograft tumours from BALB/c nude mice", "conditions": "75 mg/kg and 37 mg/kg, respectively; 24 hr post third dose", "procedure": "For the PD analysis, tumors were harvested 24 hr post third dose and GSPT1 total levels in tumors were determined by western blotting analysis. GADPH levels were measured as control Briefly, 30-50 mg of tumor was placed in 350 μL of RIPA buffer containing 1% Protease Inhibitor Cocktail and 1% Phosphatase Inhibitor Cocktail 2. Tumors were grinded using the Tissuelyser LT at 50 Hz for 5 min. the tissue lysates were kept on ice for 30 min, centrifuged at 12,000 rpm at 4° C. for 10 min and protein concentration measured using the Pierce™ BCA Protein Assay Kit as recommended by the manufacturer. Samples were diluted to the same final concentration (at 4 μg/μL) using RIPA buffer plus 4×LDS Sample Buffer and 10× Sample Reducing Agent and subsequently heat denatured at 100° C. for 10 min. Western blot analysis was performed using 5 μL per slot for each sample, loaded on a NuPAGE® 4-12% Bis-Tris gel, probing for GSPT1 (Sigma-HPA052488; 1/250 dilution) and GAPDH as loading control (CST-5174; 1/2000 dilution)."}, "[7]": {"tested_on": "Human mammary epithelial cells, or HMECs, overexpressing c-Myc in a doxycycline-inducible manner", "test": "Viability of HMECs with doxycycline-inducible c-Myc overexpression", "format": "cell-based", "conditions": "for induction of cell death: highest concentration tested 30 μM", "excerpt": "X-axis represents m concentration of compound 8; y-axis represents viability normalized to DMSO."}}, "data": [{"compound": "Cc1ccc(NC(=O)OCc2ccc3c(c2)C(=O)N(C2CCC(=O)NC2=O)C3)cc1Cl", "note": "(stereo not shown) [Compound 210]", "values": [{"measurement": "relative levels of GSPT1 versus concentration", "setting": "[1]", "result": "degrades GSPT1 in a concentration dependent manner"}, {"measurement": "extent of GSPT1 degradation", "setting": "[1]; NCI-H1155 and ABC-1 cells", "result": "complete degradation of GSPT1"}, {"measurement": "extent of GSPT1 degradation", "setting": "[2]", "result": "Complete degradation of GSPT1"}, {"measurement": "tumor size", "setting": "[3]; 3 mg/kg once daily", "result": "tumor size decreased and remained so until the end of the study"}, {"measurement": "tumor size", "setting": "[3]; 6 mg/kg, five days on and nine days off", "result": "tumor size decreased and remained so until the end of the study"}, {"measurement": "body weight", "setting": "[3]; oral administration", "result": "no body weight loss observed"}, {"measurement": "tumor growth", "setting": "[3]; oral administration", "result": "tumor growth inhibition"}]}, {"compound": "O=C1CCC(N2Cc3ccc(COC(=O)Nc4cc(OC(F)(F)F)ccc4F)cc3C2=O)C(=O)N1", "note": "(stereo not shown) [Compound 345, (2-(2,6-dioxopiperidin-3-yl)-3-oxoisoindolin-5-yl)methyl(2-fluoro-5-(trifluoromethoxy)phenyl)carbamate]", "values": [{"measurement": "apoptosis (Caspase 3/7)", "setting": "[4]", "result": "Apoptosis induction"}]}, {"compound": "Cc1ccc(NC(=O)NCc2ccc3c(c2)C(=O)N(C2CCC(=O)NC2=O)C3)cc1Cl", "note": "(stereo not shown) [Compound 8]", "values": [{"measurement": "GSPT1 levels in tumors", "setting": "[5]", "result": "robust and dose-dependent degradation of GSPT1 levels in tumors"}, {"measurement": "GSPT1 levels in tumors", "setting": "[6]", "result": "no or insignificant amounts of GSPT1"}, {"measurement": "EC50", "setting": "[7]; Homo sapiens, HMEC, presence of high c-Myc expression, read-out: EC50 of induced cell death (viability normalized to DMSO)", "result": 640, "unit": "nM"}, {"measurement": "induction of cell death", "setting": "[7]; absence of doxycycline-driven c-Myc expression", "result": "did not induce cell death"}, {"measurement": "induction of cell death", "setting": "[7]; after doxycycline was washed out to remove c-Myc expression", "result": "did not induce cell death"}]}]}
